# Laboratory results: ChEMBL document CHEMBL1817580, “Chemical modifications of resveratrol for improved protein kinase C alpha activity” (Bioorg Med Chem, 2011)
# Active and inactive are the calls of the source. The rule behind the calls is not given here.
# Key:
# HEK293 [1] = experiment: Cytotoxicity against HEK293 cells assessed as increase in cell viability at 100 uM after 48 hrs by MTT assay relative to resveratrol; type: cell-based; conditions: human, hek293, 48 h
# [2] = molecular target: Protein kinase C alpha type (Homo sapiens) (UniProt P17252); experiment: Inhibition of membrane translocation of PKCalpha expressed in HEK293 cells assessed as increase of protein found in membrane fraction at 100 uM after 2 hrs by Western blotting relative to resveratrol; type: cell-based; set-up: scale not given: the % may be the effect or the level left
# [3] = molecular target: Protein kinase C alpha type (Homo sapiens) (UniProt P17252); experiment: Inhibition of TPA-induced membrane translocation of PKCalpha expressed in HEK293 cells assessed as protein found in membrane fraction at 100 uM after 2 hrs by Western blotting relative to TPA; type: cell-based; set-up: scale not given: the % may be the effect or the level left
# [4] = molecular target: Protein kinase C alpha type (Homo sapiens) (UniProt P17252); experiment: Binding affinity to recombinant C1B domain of PKCalpha expressed in Escherichia coli BL21 (DE3) after 45 mins by fluorescence quenching assay
# HEK293 [5] = experiment: Cytotoxicity against HEK293 cells assessed as decrease in cell viability at 100 uM after 48 hrs by MTT assay relative to control; type: cell-based; conditions: human, hek293, 48 h
# [6] = molecular target: Protein kinase C alpha type (Homo sapiens) (UniProt P17252); experiment: Inhibition of membrane translocation of PKCalpha expressed in HEK293 cells at 100 uM after 2 hrs by Western blotting; type: cell-based
SMILES,fold change (FC) (HEK293 [1]),Activity [2] [%],Activity [3] [%],Activity [4],Activity (HEK293 [5]) [%],inhibition [6] [%],Activity (HEK293 [1]) [%]
CCCCCCCCCCCCCCCCOc1cc(/C=C/c2ccc(O)cc2)cc(OCCCCCCCCCCCCCCCC)c1,2,20,78.8,–,–,–,–
CCCCCCCCOc1cc(/C=C/c2ccc(O)cc2)cc(OCCCCCCCC)c1,4,20,65.7,–,–,–,–
CCCCCCCCOc1ccc(/C=C/c2cc(O)cc(O)c2)cc1,4,20,85.2,–,–,–,–
CCCCCCCCCCCCCCCCOc1ccc(/C=C/c2cc(O)cc(O)c2)cc1,2,20,79.8,Active,–,–,–
COc1cc(/C=C/c2cc(OC)c(OC)c(OC)c2)cc(OC)c1OC,2,20,44.8,–,–,–,–
Oc1ccc(/C=C/c2cc(O)cc(O)c2)cc1 [RESVERATROL],–,–,60,Active,20,5,–
Oc1cc(/C=C/c2cc(O)c(O)c(O)c2)cc(O)c1O,–,20,29.8,Active,–,–,25
CCCCCCCCCCCCCCCCOc1c(O)cc(/C=C/c2cc(O)c(O)c(O)c2)cc1O,–,20,68.3,–,–,–,25
COc1ccc(/C=C/c2cc(OC)cc(OC)c2)cc1 [TRISMETHOXYRESVERATROL],4,20,31.9,Active,–,–,–
